The source made the active and inactive calls. The rule behind the calls is not given here.
Key:
[1] = target: T1, Sphingosine kinase 2 (Homo sapiens) (UniProt Q9NRA0); assay: Inhibition of human recombinant SphK2 expressed in Sf9 cells assessed as enzyme activity measured as radiolabeled products using 10 uM sphingosine and 10 uM gamma[32P]ATP at 1 uM by liquid scintillation counting; parameters: scale not given: the % may be the effect or the level left
T1 sequence (whole entry): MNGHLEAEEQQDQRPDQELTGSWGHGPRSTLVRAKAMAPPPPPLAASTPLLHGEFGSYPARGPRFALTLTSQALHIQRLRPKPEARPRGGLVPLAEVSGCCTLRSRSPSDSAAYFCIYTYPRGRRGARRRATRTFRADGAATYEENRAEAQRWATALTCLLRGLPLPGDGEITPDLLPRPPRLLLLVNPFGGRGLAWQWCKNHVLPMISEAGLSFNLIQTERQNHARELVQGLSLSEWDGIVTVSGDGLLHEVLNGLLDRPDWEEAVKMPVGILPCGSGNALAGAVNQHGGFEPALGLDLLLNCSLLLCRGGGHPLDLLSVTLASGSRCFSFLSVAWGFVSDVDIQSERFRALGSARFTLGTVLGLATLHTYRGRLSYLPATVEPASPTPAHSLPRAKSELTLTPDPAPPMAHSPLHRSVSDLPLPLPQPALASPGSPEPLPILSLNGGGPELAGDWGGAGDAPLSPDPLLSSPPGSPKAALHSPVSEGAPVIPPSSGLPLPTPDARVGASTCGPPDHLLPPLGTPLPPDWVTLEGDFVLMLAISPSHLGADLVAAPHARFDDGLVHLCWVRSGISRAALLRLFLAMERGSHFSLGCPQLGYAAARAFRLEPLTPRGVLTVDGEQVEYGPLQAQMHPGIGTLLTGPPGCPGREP

Sphingosine kinase 2 = target: T2, Sphingosine kinase 2 (Homo sapiens, UniProt Q9NRA0); assay: biochemical
T2 sequence (Q9NRA0 whole entry): T1 sequence (whole entry)
Description: Inhibition of human recombinant SphK2 expressed in Sf9 cells assessed as radiolabeled products using 10 uM sphingosine and 10 uM gamma[32P]ATP by liquid scintillation counting

[2] = Drug uptake in human U937 cells assessed as accumulation in cells at 100 nM to 1 uM after 2 hrs incubation by LC-MS-MS analysis; type: ADME, cell-based; settings: u-937, 2 h, 0.1 µM
U-937 [3] = assay: Reduction in S1P level in human U937 cells at 100 nM to 1 uM after 2 hrs incubation by LC-MS-MS analysis; type: functional, cell-based
U-937 [4] = assay: Increase in sphingosine level in human U937 cells at 100 nM to 1 uM after 2 hrs incubation by LC-MS-MS analysis; type: functional, cell-based
Mus musculus [5] = assay: Increase in S1p level in C57BL6/j mouse blood at 10 mg/kg, ip up to 8 hrs by LC-MS-MS analysis relative to control; type: functional; settings: route intraperitoneal
Mus musculus [6] = assay: Increase in Sph level in C57BL6/j mouse blood at 10 mg/kg, ip up to 8 hrs by LC-MS-MS analysis relative to control; type: functional, organism-based; parameters: dose 10 mg/kg
[7] = Cytotoxicity against human U937 cells assessed as cell viability up to 3 uM after 24 hrs by trypan blue dye assay; type: cell-based; settings: u-937, 24 h
[8] = target: T1, Sphingosine kinase 2 (Homo sapiens); settings: U-937, 3 uM
Description: Inhibition of SphK2 in human U937 cells assessed as decrease in phosphorylated FTY720 substrate at 3 uM after 2 hrs incubation by LC-MS-MS analysis

in vivo = settings: mouse, ip, 10 mg/kg
Description: Half life in mouse at 10 mg/kg, ip

U-937 [9] = assay: Decrease in S1P level in human U937 cells at 100 nM after 2 hrs incubation by LC-MS-MS analysis
[10] = Half life in rat; type: ADME, organism-based; settings: in vivo

SMILES | Activity [1] [%] | other results
CCCCCCCCc1ccc(-c2noc(C3(NC(=N)N)CC3)n2)cc1 | 98 | –
CCCCCCCCc1ccc(CNC(=O)[C@@H]2CCCN2C(=N)N)cc1 | 95 | –
CCCCCCCCc1ccc(CC[C@](N)(CO)COC)cc1 | – | Ki (Sphingosine kinase 2): 16.5 µM
CCCCCCCCc1ccc(-c2noc(CN(C)C(=N)N)n2)cc1 | 90 | –
CCCCCc1ccc(/C=C/[C@H](O)[C@@H](CO)NC)cc1 | – | Ki (Sphingosine kinase 2): > 100 µM
CCCCCCCCc1ccc(-c2noc(CNC(=N)N)n2)cc1 | 90 | –
OC[C@H]1C[C@@H](O)CCN1CCc1ccc(Nc2nc(-c3ccc(C(F)(F)F)cc3)cs2)cc1 | – | half-life (in vivo): 6.5 h
CCCCCCCCc1ccc(-c2noc([C@@H](NC(=N)N)C(C)C)n2)cc1 | 85 | –
CCCCCCCCc1ccc(-c2noc([C@H](CO)NC(=N)N)n2)cc1 | 99 | –
CCCCCCCCc1ccc(-c2noc(C[C@@H]3CCCN3C(=N)N)n2)cc1.Cl | – | Drug uptake [2]: Active; inhibition (U-937 [3]): Active; Inhibition (U-937 [9]): 90%
CCCCCCCCCCc1ccc(NC(=O)[C@@H]2CCCN2C(=N)N)cc1 | 83 | –
C[C@@H](NC(=O)[C@H]1NCC[C@@H]1O)c1ccc(-c2noc(CCC3CCCC3)n2)cc1 | – | half-life [10]: 4.3 h
Oc1ccc(Nc2nc(-c3ccc(Cl)cc3)cs2)cc1 | – | Ki (Sphingosine kinase 2): 50 µM
CCCCCCCCc1ccc(-c2noc([C@H](C)NC(=N)N)n2)cc1 | 94 | –
CCCCCCCCCCc1ccc(NC(=O)[C@H]2CCCN2C(=N)N)cc1 | 100 | –

Second part, led by results:

Activity [1] [%] | SMILES | other results
70 | CCCCCCCCc1ccc(-c2noc([C@@H]3C[C@@H](O)CN3C(=N)N)n2)cc1 | Ki (Sphingosine kinase 2): 5.2 µM
96 | CCCCCCCCc1ccc(-c2noc([C@@H]3C=CCN3C(=N)N)n2)cc1 | –
75 | CCCCCCCCc1ccc(C(=O)NC[C@@H]2CCCN2C(=N)N)cc1 | –
90 | CCCCCCCCc1ccc(-c2noc([C@H]3CCCN3C(=N)N)n2)cc1 | –
56 | CCCCCCCCc1ccc(-c2noc([C@@H]3CCN3C(=N)N)n2)cc1.Cl | Drug uptake [2]: Active; inhibition (U-937 [3]): Active; Activity (U-937 [4]): Active; fold change (FC) (Mus musculus [5]): 2; Activity (Mus musculus [6]): Active; Activity [7]: Non-toxic; inhibition [8]: Active; Ki (Sphingosine kinase 2): 1.2 µM
44 | CCCCCCCCc1ccc(-c2noc([C@@H]3CCCN3C(=N)N)n2)cc1.Cl | Ki (Sphingosine kinase 2): 1.3 µM
92 | CCCCCCCCc1ccc(-c2noc([C@@H]3CCCCN3C(=N)N)n2)cc1 | –
95 | CCCCCCCCc1ccc(-c2noc([C@@H]3CCN(C(=N)N)C3)n2)cc1 | –
65 | CCCCCCCCc1ccc(-c2noc([C@@H]3[C@@H](O)CCN3C(=N)N)n2)cc1 | –
91 | CCCCCCCCc1ccc(-c2nnc([C@@H]3CCCN3C(=N)N)o2)cc1 | –
96 | CCCCCCCCc1ccc(-c2noc(C3CN(C(=N)N)C3)n2)cc1 | –
100 | CCCCCCCCc1ccc(-c2noc(CC[C@@H]3CCCN3C(=N)N)n2)cc1 | –
90 | CCCCCCCCc1ccc(-c2noc([C@@H]3C[C@H](O)CN3C(=N)N)n2)cc1 | –
42 | CCCCCCCCc1ccc(-c2nc([C@@H]3CCCN3C(=N)N)no2)cc1 | Ki (Sphingosine kinase 2): 1.1 µM
